# Test results as given in PMC11627468, “Novel enzyme‐resistant pancreatic polypeptide analogs evoke pancreatic beta‐cell rest, enhance islet cell turnover, and inhibit food intake in mice” (Biofactors (Oxford, England), 2024).
# Starred links: 1 amine or outer side, 2 acyl side, 3 side chain; linkers in the order of their positions; H or OH if unused. Residues, ends and D or L forms follow the SMILES beside them. Groups on a side chain read outwards from the residue. No end group written: not given here. *: point of attachment. γGlu = O=C(O)[C@H](CCC(=O)[*:2])N[*:1]; Palmitoyl = CCCCCCCCCCCCCCCC(=O)*
# Columns and labels:
# BRIN‐BD11 beta‐cells [1] = experiment: Beta‐cell proliferation (Ki‐67 staining); assay type: cell-based; settings: versus control cultures, n = 3
# Procedure: (§1) To assess the effects of PP and related peptides (10^−8 and 10^−6 M) on beta‐cell proliferation and apoptosis, BRIN‐BD11 beta‐cells were seeded onto sterilized, clear‐glass coverslips (16 mm diameter) and placed in 12‐well plates (Falcon Ltd) at a density of 40,000 cells per well and cultured for 18 h. Media control (11.1 mM glucose), GLP‐1 (10^−8 and 10^−6 M), and a cytokine cocktail mix (IL‐1β [100 U/mL], IFNγ [20 U/mL], TNFα [200 U/mL], Sigma Aldrich, UK) were employed as controls, as appropriate. Cells were then rinsed with PBS and fixed using 4% paraformaldehyde. After antigen retrieval with sodium citrate buffer at 95°C for 20 min, blocking was performed using 2% bovine serum albumin (BSA) for 45 min. For proliferation studies, the slips were then incubated at 37°C with rabbit anti‐Ki‐67 primary antibody (Abcam, ab15580), and subsequently with Alexa Fluor® 488 secondary antibody. Coverslips were mounted onto polylysine‐coated microscope slides using a 50:50 glycerol:PBS solution and stored at 4°C until required for analysis. To assess the ability of PP peptides to protect against cytokine‐induced apoptosis, cells were seeded, washed, and fixed as above, with the exception that the media was supplemented with the cytokine mix. The slips were then incubated at 37°C with TUNEL reaction mix for 60 min (Roche Diagnostics, Germany), and mounted onto microscope slides. To assess receptor specificity, co‐incubation of PP peptides with the well characterized NPY4R antagonist, (S)‐VU0637120,[24] at 10^−5 M was employed for beta‐cell proliferation experiments, conducted as detailed above. All slides were viewed using a fluorescent microscope (Olympus System Microscope, model BX51; Southend‐on‐Sea, UK) and photographed by DP70 camera adapter system. Proliferation/TUNEL positive frequency was determined using the cell‐counter function on ImageJ Software and expressed as % of total cells analyzed.
# C57BL/6 mice [2] = experiment: Acute food intake in overnight fasted mice; assay type: in vivo
# Procedure: (§2) Acute in vivo studies were conducted in groups (n = 6) of 4‐month‐old male C57BL/6 mice (Envigo, Huntington, UK). All mice were maintained on standard rodent chow (10% fat, 30% protein, and 60% carbohydrate; Trouw Nutrition, Northwich, UK), and drinking water provided ad libitum. Mice were housed individually and kept in a temperature‐controlled environment (22 ± 2°C), with a 12‐h light/dark cycle. Experiments were carried out in accordance with the UK Animal Scientific Procedures Act 1986 as well as being approved by Ulster University Animal Ethics Review Committee (AWERB) committee and protected by the UK Home Office Animal project license number PPL2902, approved on April 26, 2021. Acute effects of test peptides on food intake were tested in overnight (16 h) fasted mice. Briefly, fasted mice were administered an intraperitoneal (i.p.) injection of saline vehicle (0.9% (w/v) NaCl) alone or in combination with test peptides (each at 25, 75, or 200 nmol/kg bw) and cumulative food intake measured at regular intervals, to assess the pharmacodynamic profile of the test peptides. For food intake studies, mice were provided with preweighed rodent maintenance diet in their food hopper at t = 0 min, which was then re‐weighed at each timepoint with all due care taken to account for any wastage or crumbling of the food pellets. In this regard, the investigator was present at all times during the 180‐min test period to ensure accuracy and consistency in all measurements. Furthermore, effects of PP or related peptides (25 nmol/kg bw) on glucose homeostasis and insulin secretion were evaluated in overnight fasted mice following i.p. injection of glucose alone (18 mmol/kg bw) or in combination with PP peptides (each at 25 nmol/kg bw).
# C57BL/6 mice [3] = experiment: Glucose‐stimulated plasma insulin in mice; assay type: in vivo; settings: n = 6; for glucose‐induced insulin secretion (plasma insulin): peptide 25 nmol/kg with glucose 18 mmol/kg i.p., versus glucose control
# Procedure: as §2, with “bw). […] Blood glucose was measured immediately using a hand‐held Ascencia Contour blood glucose meter (Bayer Healthcare, Newbury, Berkshire, UK). For plasma insulin, blood was collected in chilled fluoride/heparin‐coated microcentrifuge tubes (Sarstedt, Numbrecht, Germany) and centrifuged using a Beckman microcentrifuge (Beckman Instruments, Galway, Ireland) for 10 min at 12,000 rpm. Plasma was separated and stored at −20°C, until determination of plasma insulin by radioimmunoassay.[23]” for “bw).”
# C57BL/6 mice [4] = experiment: Glucose tolerance in mice; assay type: in vivo; settings: exendin‐4 0.25 nmol/kg or CCK‐8 25 nmol/kg with glucose 18 mmol/kg i.p., versus glucose control; n = 6
# Procedure: as §2, with “bw). […] Blood glucose was measured immediately using a hand‐held Ascencia Contour blood glucose meter (Bayer Healthcare, Newbury, Berkshire, UK). […]” for “bw).”
# BRIN‐BD11 beta‐cells [5] = experiment: Protection against cytokine‐induced beta‐cell apoptosis (TUNEL); assay type: cell-based; settings: peptides 10^−8 and 10^−6 M, cytokine cocktail IL‐1β 100 U/mL, IFNγ 20 U/mL, TNFα 200 U/mL, n = 3
# Procedure: as §1, with “The slips were then incubated at 37°C with TUNEL reaction mix for 60 min (Roche Diagnostics, Germany), and mounted onto microscope slides. To assess receptor specificity, co‐incubation of PP peptides with the well characterized NPY4R antagonist, (S)‐VU0637120,[24] at 10^−5 M was employed for beta‐cell proliferation experiments, conducted as detailed above. All slides were viewed using a fluorescent microscope (Olympus System Microscope, model BX51; Southend‐on‐Sea, UK) and photographed by DP70 camera adapter system.” left out
compound,measurement,setting,value
CCCCCCCCCCCCCCCC(=O)N[C@@H](CCC(=O)NCCCC[C@H](NC(=O)[C@H](C)NC(=O)[C@H](CC(N)=O)NC(=O)[C@H](CC(=O)O)NC(=O)CNC(=O)[C@@H]1CCCN1C(=O)[C@H](Cc1ccc(O)cc1)NC(=O)[C@@H](NC(=O)[C@@H]1CCCN1C(=O)[C@H](CCC(=O)O)NC(=O)[C@H](CC(C)C)NC(=O)[C@@H]1CCCN1C(=O)[C@H](C)N)C(C)C)C(=O)N1CCC[C@H]1C(=O)N[C@@H](CCC(=O)O)C(=O)N[C@@H](CCC(N)=O)C(=O)N[C@@H](CCSC)C(=O)N[C@@H](C)C(=O)N[C@@H](CCC(N)=O)C(=O)N[C@@H](Cc1ccc(O)cc1)C(=O)N[C@@H](C)C(=O)N[C@@H](C)C(=O)N[C@@H](CC(=O)O)C(=O)N[C@@H](CC(C)C)C(=O)N[C@@H](CCCNC(=N)N)C(=O)N[C@@H](CCCNC(=N)N)C(=O)N[C@@H](Cc1ccc(O)cc1)C(=O)N[C@H](C(=O)N[C@@H](CC(N)=O)C(=O)N[C@@H](CCSC)C(=O)N[C@@H](CC(C)C)C(=O)N[C@H](C(=O)N[C@@H](CCCNC(=N)N)C(=O)N1CCC[C@H]1C(=O)N[C@@H](CCCNC(=N)N)C(=O)N[C@@H](Cc1ccc(O)cc1)C(N)=O)[C@@H](C)O)[C@@H](C)CC)C(=O)O [[K^13Pal]PP] (H-APLEPVYPGDNAK([γGlu-Palmitoyl])PEQMAQYAADLRRYINMLTRPRY-NH2; N-terminus assumed),BRIN‐BD11 cell proliferation,BRIN‐BD11 beta‐cells [1]; peptide 10^−8 M,augmented
same,food intake in combination with exendin‐4,"C57BL/6 mice [2]; PP peptide 25 nmol/kg with exendin‐4 0.25 nmol/kg i.p., fasted mice, n = 6",additive appetite suppressive actions
same,"food intake in overnight fasted mice, summary in discussion","C57BL/6 mice [2]; i.p., overnight fasted mice",retained impressive effects to restrict food intake
"(N‐Pal)APLEPVYPGDNATPEQMAQYAADLRRYINMLTRPR‐NH2 [[N‐Pal]PP, PP analog with C‐16 palmitate via γ‐glutamyl spacer at the N‐terminal amino group]",glucose‐induced insulin secretion (plasma insulin),C57BL/6 mice [3],slightly decreasing (p = <0.05 to 0.01)
same,cumulative food intake (appetite suppression),"C57BL/6 mice [2]; 200 nmol/kg i.p., overnight fasted mice, later observation points, versus saline, n = 6",mild inhibitory (p < 0.05) effect
"(N‐Pal)APPEPVYPGDNATPEQMAQYAADLRRYINMLTRPR‐NH2 [[N‐Pal,P^3]PP, PP analog with Pro^3 and N‐terminal C‐16 palmitate via γ‐glutamyl spacer]",glucose‐induced insulin secretion (plasma insulin),C57BL/6 mice [3],slightly decreasing (p = <0.05 to 0.01)
same,cumulative food intake (appetite suppression),"C57BL/6 mice [2]; all doses employed (25, 75, 200 nmol/kg i.p.), overnight fasted mice, n = 6",lacked bioactivity
"CCK‐8: used for cholecystokinin (CCK) receptor activation in combination studies (DYMGWMDF; ends and bridges not checked; UniProt P06307 96-103, looked up)","insulinotropic action, exendin‐4 or CCK‐8",C57BL/6 mice [3]; exendin‐4 0.25 nmol/kg or CCK‐8 25 nmol/kg with glucose 18 mmol/kg i.p.,significant insulinotropic actions
same,"glucose disposal, exendin‐4 or CCK‐8",C57BL/6 mice [4],benefits
same,"food intake (appetite suppression), CCK‐8 alone","C57BL/6 mice [2]; CCK‐8 25 nmol/kg i.p., early observation points, versus saline, n = 6",impressive effects on appetite suppression (p < 0.001)
"glucagon‐like peptide‐1 (HAEGTFTSDVSSYLEGQAAKEFIAWLVKGR; ends and bridges not checked; UniProt P01275 98-127, looked up) [GLP‐1, positive control in proliferation and apoptosis tests]",BRIN‐BD11 cell proliferation,BRIN‐BD11 beta‐cells [1]; peptide 10^−6 M,significantly (p < 0.001) enhanced
same,BRIN‐BD11 cell proliferation,BRIN‐BD11 beta‐cells [1]; peptide 10^−8 M,significantly (p < 0.001) enhanced
same,protection against cytokine‐induced beta‐cell apoptosis,BRIN‐BD11 beta‐cells [5],significantly (p = <0.01 to 0.001) protected against cell death
